Measurements reported in PubChem BioAssay AID1963427 (Molecular Pharmacology Branch, DTP, NCI, 2024).

Tested on: 317291-083-R-J1-PDC complex spheroid growth
Assay: Anticancer human tumor 317291-083-R-J1-PDC patient-derived soft tissue sarcoma cell line growth inhibition [Asc]
Conditions: for IC50: curve of first compound; for viability, T/C: stronger effect = lower value
Description: Multicellular complex tumor spheroid response to apoptosis pathway targeting inhibitors Alrizomadlin, Pelcitoclax, and Dasminapant in combination with a variety of drugs and investigational agents in selected tumor cell lines
The MDM2 inhibitor alrizomadlin, the Bcl-2/Bcl-xL inhibitor pelcitoclax, and the IAPs inhibitor dasminapant were evaluated both individually and in combination with standard of care and investigational anticancer small molecules within a complex spheroid model of solid tumors. . Complex spheroids include a stromal component modeled by human endothelial cells (HUVEC) and fibroblasts modeled by human mesenchymal stem cells (MSCs). The concentration ranges selected for each drug and investigational agent were based upon clinically achievable concentrations if the clinical Cmax of the agent was known.
Compounds. The drugs and investigational agents: alrizomadlin (APG-115; NSC831270), pelcitoclax (APG-1252; NSC835773), dasminapant (APG-1387;NSC834197), TAK-243 (NSC785004), copanlisib (NSC809693), olaparib (NSC753686), talazoparib (NSC767125), cobimetinib (NSC 768068), eltanexor (KPT-8602, NSC 794443), abemaciclib (NSC 768073), sotorasib (NSC818433), adagrasib (NSC 831453), MRTX-1133 (NSC 836407), Iadademestat (ORY1001, NSC 806812), and RMC-4630 (NSC839698), were obtained from the NCI Developmental Therapeutics Program Chemical Repository. The FDA-approved anticancer drug set is available from the Developmental Therapeutics Program at https://dtp.cancer.gov/organization/dscb/obtaining/available plates.htm. […] The stock solutions were prepared in dimethyl sulfoxide (DMSO, Sigma-Aldrich, St. Louis, MO, cat. D2650) at 800-fold the tested concentration and stored at -70 degrees C prior to their use. All drugs and investigational agents were tested over a range starting from a high concentration at or near the clinical Cmax and decreasing in half-log increments. If the clinical Cmax for an agent had not been determined, the highest concentration tested was 10 microM.
The patient-derived cancer (PDC) cell lines include five colon adenocarcinomas: 186277-243-T-J2-PDC, 616215-338-R-J1-PDC, 439559-082-T-J2-PDC, 463943-066-T-J2-PDC, and 519858-162-T-J1-PDC; three pancreatic carcinomas: 323965-272-R-J2-PDC, 521955-158-R6-J3-PDC, and 521955-158-R2-J5-PDC; two uterine sarcomas: 327498-152-R-J2-PDC and 993429-296-R-J1-PDC; two rhabdomyosarcomas: 755483-174-R-J1-PDC and 772245-204-R-J1-PDC; two soft tissue sarcomas: 126254-015-R-J1-PDC and 494315-158-R-J1-PDC; two malignant fibrous histiocytomas: 317291-083-R-J1-PDC and 596521-263-R-J1-PDC; two breast carcinomas: 171881-019-R-J1-PDC and 885512-296-R-J2-PDC; and one ovarian carcinoma: 6556581-035-R-J-PDC were obtained from the NCI PDMR, (https://pdmr.cancer.gov). The established cell lines HSSY-2 synovial sarcoma (RRID:CVCL 8719), SYO-1 synovial sarcoma (RRID:CVCL_7146), MPNST malignant peripheral neural sheath tumor were obtained from the Sloan Kettering Institute. The following established cell lines were purchased from the American Type Culture Collection (ATCC, Manassas, VA), Sor the received from the NCI repository:, PANC-1 pancreatic carcinoma (CRL-1469, RRID:CVCL_0480), OVCAR-5 ovarian carcinoma (RRID:CVCL_1628), OVCAR-8 ovarian carcinoma (RRID:CVCL_1629), , MCF-7 breast carcinoma (CRL-12584, RRID:CVCL_0031), MDA-MB-231 breast carcinoma (CRL-12532, RRID:CVCL_0062), NCI-H1876 small cell lung carcinoma (CRL-5902, RRID:CVCL_1503), NCI-H510A small cell lung carcinoma (HTB-184, RRID:CVCL_1565), NCI-H1417 (CRL-5869, RRID:CVCL_1469), and NCI-H196 small cell lung carcinoma (CRL-5823, RRID:CVCL_1509). Dr. Peter Houghton (Greehey Children's Cancer Research Institute, University of Texas Health Science Center, San Antonio, TX) provided Rh-18 rhabdomyosarcoma (RRID:CVCL_1659). Pooled donor human umbilical vein endothelial cells (HUVEC, Lonza, cat. CC-2519) and human mesenchymal stem cells (hMSC, Lonza, cat. PT-2501) were purchased from Lonza (Walkersville, MD).
Cell Culture. […]
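Also: compound exposure lasted seven days after spheroids formed for three days.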
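For viability, T/C in this document: 100% = DMSO vehicle control wells.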

SMILES: O=C(c1cc(Cc2n[nH]c(=O)c3ccccc23)ccc1F)N1CCN(C(=O)C2CC2)CC1 + CCN1C(C(=O)NC23CCC(C(=O)O)(CC2)CC3)C(c2cccc(Cl)c2F)C2(C(=O)Nc3cc(Cl)ccc32)C12CCCCC2
- IC50 (second compound 0.00949 µM): 9.4 µM
- IC50 (second compound 0.03 µM): > 10 µM
- IC50 (second compound 0.0949 µM): > 10 µM
- IC50 (second compound 0.3 µM): 9.47 µM
- IC50 (second compound 0.949 µM): > 10 µM
- IC50 (second compound 3 µM): 7.68 µM
- viability, T/C (second compound 0.00949 µM, first compound 0.0316 µM): 111%
- viability, T/C (second compound 0.00949 µM, first compound 0.1 µM): 108%
- viability, T/C (second compound 0.00949 µM, first compound 0.316 µM): 108%
- viability, T/C (second compound 0.00949 µM, first compound 1 µM): 86.9%
- viability, T/C (second compound 0.00949 µM, first compound 3.16 µM): 92.7%
- viability, T/C (second compound 0.00949 µM, first compound 10 µM): 46.2%
- viability, T/C (second compound 0.03 µM, first compound 0.0316 µM): 110%
- viability, T/C (second compound 0.03 µM, first compound 0.1 µM): 101%
- viability, T/C (second compound 0.03 µM, first compound 0.316 µM): 102%
- viability, T/C (second compound 0.03 µM, first compound 1 µM): 104%
- viability, T/C (second compound 0.03 µM, first compound 3.16 µM): 81.7%
- viability, T/C (second compound 0.03 µM, first compound 10 µM): 54.6%
- viability, T/C (second compound 0.0949 µM, first compound 0.0316 µM): 101%
- viability, T/C (second compound 0.0949 µM, first compound 0.1 µM): 105%
- viability, T/C (second compound 0.0949 µM, first compound 0.316 µM): 92.1%
- viability, T/C (second compound 0.0949 µM, first compound 1 µM): 104%
- viability, T/C (second compound 0.0949 µM, first compound 3.16 µM): 77.2%
- viability, T/C (second compound 0.0949 µM, first compound 10 µM): 53%
- viability, T/C (second compound 0.3 µM, first compound 0.0316 µM): 116%
- viability, T/C (second compound 0.3 µM, first compound 0.1 µM): 114%
- viability, T/C (second compound 0.3 µM, first compound 0.316 µM): 102%
- viability, T/C (second compound 0.3 µM, first compound 1 µM): 91.2%
- viability, T/C (second compound 0.3 µM, first compound 3.16 µM): 93.2%
- viability, T/C (second compound 0.3 µM, first compound 10 µM): 46.2%
- viability, T/C (second compound 0.949 µM, first compound 0.0316 µM): 107%
- viability, T/C (second compound 0.949 µM, first compound 0.1 µM): 109%
- viability, T/C (second compound 0.949 µM, first compound 0.316 µM): 107%
- viability, T/C (second compound 0.949 µM, first compound 1 µM): 92.4%
- viability, T/C (second compound 0.949 µM, first compound 3.16 µM): 88.9%
- viability, T/C (second compound 0.949 µM, first compound 10 µM): 51.9%
- viability, T/C (second compound 3 µM, first compound 0.0316 µM): 88.2%
- viability, T/C (second compound 3 µM, first compound 0.1 µM): 85.3%
- viability, T/C (second compound 3 µM, first compound 0.316 µM): 81.1%
- viability, T/C (second compound 3 µM, first compound 1 µM): 83.3%
- viability, T/C (second compound 3 µM, first compound 3.16 µM): 77.1%
- viability, T/C (second compound 3 µM, first compound 10 µM): 41.8%
